According to BindingDB's records for patent US20230312571 (Fujian Akeylink Biotechnology, 2023):

Target: Replicase polyprotein 1a (Severe acute respiratory syndrome coronavirus 2, UniProt P0DTC1)
Assay: Evaluation of the in Vitro Anti-Novel Coronavirus Mpro Protease Activity
Experimental: The compound was dissolved in DMSO, and diluted in a 3-fold gradient with Echo655 according to the concentration requirements to 10 concentration points, and duplicate tests were set at each concentration, and the diluted solution was added to a 384-well plate. Mpro protein and substrate were diluted with test buffer (100 mM NaCl, 20 mM Tris-HCl, 1 mM EDTA), and Mpro protein was added to the 384-well test plate, incubated with the compound for 30 min at room temperature, and then the substrate was added thereto, and the test concentration of Mpro protein was 25 nM, and the test concentration of substrate was 25 µM. After incubating for 60 minutes in a 30° C. constant temperature incubator, the fluorescence signal value of Ex/Em=340 nm/490 nm was detected by microplate reader. At the same time, the background well containing the substrate and compound but not containing Mpro protein was detected as control.

N#C[C@H](C[C@@H]1CCNC1=O)NC(=O)[C@@H]1[C@H]2CC[C@H](C2)N1C(=O)[C@@H](NC(=O)C(F)(F)F)C1CCCCC1 [US20230312571, Compound 2]
IC50: 249 nM
